ChEMBL document CHEMBL4819104, “Discovery of 2-amino-3-amido-5-aryl-pyridines as highly potent, orally bioavailable, and efficacious PERK kinase inhibitors” (Bioorg Med Chem Lett, 2021)
In brackets after ≈: the same amount, converted by molar mass.

Key:
[1] = target: T1, Eukaryotic translation initiation factor 2-alpha kinase 3 (Homo sapiens, UniProt Q9NZJ5); assay: Inhibition of human His-tagged PERK expressed in Escherichia coli assessed as eIF2alpha phosphorylation by TR-FRET assay
T1 sequence (Q9NZJ5 whole entry): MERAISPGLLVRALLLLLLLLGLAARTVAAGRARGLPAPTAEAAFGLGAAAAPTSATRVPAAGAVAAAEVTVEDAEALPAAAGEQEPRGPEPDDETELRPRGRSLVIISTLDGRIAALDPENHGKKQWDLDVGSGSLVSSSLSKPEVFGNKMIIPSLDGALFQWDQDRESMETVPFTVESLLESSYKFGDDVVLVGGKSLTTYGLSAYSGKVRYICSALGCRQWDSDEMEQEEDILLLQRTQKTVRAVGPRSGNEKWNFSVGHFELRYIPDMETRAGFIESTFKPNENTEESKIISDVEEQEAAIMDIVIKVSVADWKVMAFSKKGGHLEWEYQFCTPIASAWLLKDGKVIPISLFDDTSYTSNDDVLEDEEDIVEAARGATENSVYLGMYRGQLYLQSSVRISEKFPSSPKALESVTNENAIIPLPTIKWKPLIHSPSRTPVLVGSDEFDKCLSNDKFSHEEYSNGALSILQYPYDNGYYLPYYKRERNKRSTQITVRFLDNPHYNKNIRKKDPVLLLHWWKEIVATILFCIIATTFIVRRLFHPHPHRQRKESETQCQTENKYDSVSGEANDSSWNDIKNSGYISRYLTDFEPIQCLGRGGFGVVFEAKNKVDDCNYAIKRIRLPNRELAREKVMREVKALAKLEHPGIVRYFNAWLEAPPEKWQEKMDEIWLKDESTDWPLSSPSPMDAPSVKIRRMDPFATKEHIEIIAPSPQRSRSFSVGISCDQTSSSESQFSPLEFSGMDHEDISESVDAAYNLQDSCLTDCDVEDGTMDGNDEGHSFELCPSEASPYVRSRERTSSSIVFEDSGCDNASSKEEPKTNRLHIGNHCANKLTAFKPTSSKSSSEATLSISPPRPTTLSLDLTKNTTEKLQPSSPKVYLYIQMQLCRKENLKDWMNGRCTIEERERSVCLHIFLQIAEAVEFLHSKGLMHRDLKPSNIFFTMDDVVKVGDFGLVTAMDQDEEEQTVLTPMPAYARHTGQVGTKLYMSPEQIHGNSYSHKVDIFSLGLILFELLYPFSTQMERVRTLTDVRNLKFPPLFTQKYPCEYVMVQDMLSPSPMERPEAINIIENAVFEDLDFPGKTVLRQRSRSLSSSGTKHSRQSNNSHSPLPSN

[2] = Half life in mouse hepatocytes; assay type: ADME, cell-based, Hepatocyte
[3] = Apparent permeability of the compound across apical to basolateral side in human Caco-2 cells; assay type: ADME, cell-based; details: read-out: permeability
[4] = Half life in rat hepatocytes; assay type: ADME, cell-based, Hepatocyte
[5] = Plasma protein binding in human; assay type: ADME, cell-free; details: read-out: PPB (converted)
[6] = Plasma protein binding in dog; assay type: ADME, cell-free, Canis lupus familiaris; details: read-out: PPB (converted)
[7] = Plasma protein binding in rat; assay type: ADME, cell-free; details: read-out: PPB (converted)
[8] = Half life in human hepatocytes; assay type: ADME, cell-based, Hepatocyte
[9] = Aqueous solubility of the compound; assay type: physicochemical; details: buffer
[10] = Half life in dog hepatocytes; assay type: ADME, cell-based, Canis lupus familiaris, Hepatocyte
[11] = Plasma protein binding in mouse; assay type: ADME, cell-free; details: read-out: PPB (converted)
[12] = Efflux ratio of apparent permeability in human Caco-2 cells; assay type: ADME, cell-based

Question: With `CNC(=O)c1nc(-c2ccc(NC(=O)[C@H](O)c3cc(F)cc(F)c3)cc2C)cnc1N` as the compound, how does the IC50 [1] read?
Answer: 8 nM

Question: Which IC50 [1] does the source give for `Cc1cc(NC(=O)[C@H](O)c2cc(F)cc(F)c2)ccc1-c1cncc(C(=O)NC(C)C)c1` here?
Answer: 27 nM

Question: With `Cc1cc(NC(=O)Nc2ccccc2)ccc1-c1cnc(N)c(C(=O)NC(C)C)c1` as the compound, how does the IC50 [1] read?
Answer: 1350 nM

Question: With `Cc1cc(NC(=O)[C@H](O)c2cccc(Cl)c2)ccc1-c1cnc(N)c(C(=O)NC(C)C)c1` as the compound, how does the half-life [2] read?
Answer: 47 min

Question: What about the Papp A→B [3] of the same compound?
Answer: 22 ×10⁻⁶ cm/s

Question: And the half-life [4]?
Answer: 12 min

Question: What about the IC50 [1] of the same compound?
Answer: 3 nM

Question: What about the fraction unbound [5] of the same compound?
Answer: 0.004

Question: What about the fraction unbound [6] of the same compound?
Answer: 0.006

Question: What about the fraction unbound [7] of the same compound?
Answer: 0.013

Question: And the half-life [8]?
Answer: 259 min

Question: What about the solubility [9] of the same compound?
Answer: 13 µM (≈ 5.89 µg/mL)

Question: And the half-life [10]?
Answer: 224 min

Question: What about the fraction unbound [11] of the same compound?
Answer: 0.006

Question: What about the efflux ratio [12] of the same compound?
Answer: 2.8

Question: For `Cc1cc(NC(=O)[C@H](O)c2ccccc2)ccc1-c1cnc(N)c(C(=O)NC(C)C)c1`, which IC50 [1] is on record?
Answer: 9 nM

Question: Which IC50 [1] does the source give for `Cc1cc(NC(=O)[C@H](O)c2cc(F)cc(F)c2)ccc1-c1cc(C(=O)NC(C)C)c(N)nn1` here?
Answer: > 1000 nM

Question: For `COc1cc(NC(=O)[C@H](O)c2cc(F)cc(F)c2)ccc1-c1cnc(N)c(C(=O)NC(C)C)c1`, which IC50 [1] is on record?
Answer: 85 nM

Question: With `Cc1cc(NC(=O)[C@H](N)c2ccccc2)ccc1-c1cnc(N)c(C(=O)NC(C)C)c1` as the compound, how does the IC50 [1] read?
Answer: 1460 nM

Question: Which IC50 [1] does the source give for `CC(C)NC(=O)c1cc(-c2ccc(NC(=O)[C@H](O)c3cc(F)cc(F)c3)cc2)cnc1N` here?
Answer: 23 nM

Question: For `CCNC(=O)c1cc(-c2ccc(NC(=O)[C@H](O)c3cc(F)cc(F)c3)cc2C)cnc1N`, which half-life [2] is on record?
Answer: 69 min

Question: What about the Papp A→B [3] of the same compound?
Answer: 14 ×10⁻⁶ cm/s

Question: And the half-life [4]?
Answer: 34 min

Question: What about the IC50 [1] of the same compound?
Answer: 4 nM

Question: And the fraction unbound [5]?
Answer: 0.019

Question: What about the fraction unbound [6] of the same compound?
Answer: 0.029

Question: What about the fraction unbound [7] of the same compound?
Answer: 0.033

Question: And the half-life [8]?
Answer: 118 min

Question: And the solubility [9]?
Answer: 48 µM (≈ 21.1 µg/mL)

Question: And the half-life [10]?
Answer: 877 min

Question: What about the fraction unbound [11] of the same compound?
Answer: 0.028

Question: And the efflux ratio [12]?
Answer: 3.3

Question: With `CCc1cccc([C@@H](O)C(=O)Nc2ccc(-c3cnc(N)c(C(=O)NC(C)C)c3)c(C)c2)c1` as the compound, how does the IC50 [1] read?
Answer: 6 nM

Question: With `Cc1cccc([C@@H](O)C(=O)Nc2ccc(-c3cnc(N)c(C(=O)NC(C)C)c3)c(C)c2)c1` as the compound, how does the IC50 [1] read?
Answer: 3 nM

Question: With `Cc1cc(NC(=O)[C@@H](O)c2cc(F)cc(F)c2)ccc1-c1cnc(N)c(C(=O)NC(C)C)c1` as the compound, how does the IC50 [1] read?
Answer: 26 nM

Question: What does the source list for `Cc1cc(NC(=O)[C@H](O)c2cc(F)cc(F)c2)ccc1-c1cnc(N)c(C(=O)NC2CC2)c1`?
Answer: half-life [2]: 48 min; Papp A→B [3]: 14 ×10⁻⁶ cm/s; half-life [4]: 131 min; IC50 [1]: 3 nM; fraction unbound [5]: 0.024; fraction unbound [6]: 0.029; fraction unbound [7]: 0.028; half-life [8]: 475 min; solubility [9]: 37 µM (≈ 16.7 µg/mL); half-life [10]: > 1000 min; fraction unbound [11]: 0.028; efflux ratio [12]: 4.6

Question: Which IC50 [1] does the source give for `Cc1cc(NC(=O)[C@H](O)c2cc(F)cc(F)c2)ccc1-c1cnc(N)c(C(=O)N(C)C)c1` here?
Answer: 599 nM

Question: For `CO[C@@H](C(=O)Nc1ccc(-c2cnc(N)c(C(=O)NC(C)C)c2)c(C)c1)c1ccccc1`, which IC50 [1] is on record?
Answer: > 1000 nM

Question: Which IC50 [1] does the source give for `Cc1cc(NC(=O)[C@H](O)c2cc(F)cc(F)c2)ccc1-c1cnc(N)c(C(=O)NC(C)(C)C)c1` here?
Answer: 33 nM

Question: Which IC50 [1] does the source give for `Cc1cc(NC(=O)C(O)c2cc(F)cc(F)c2)ccc1-c1cnc(N)c(C(=O)O)c1` (centres undefined) here?
Answer: 241 nM

Question: Which IC50 [1] does the source give for `Cc1cc(NC(=O)Oc2ccccc2)ccc1-c1cnc(N)c(C(=O)NC(C)C)c1` here?
Answer: > 1000 nM

Question: With `CNC(=O)c1cc(-c2ccc(NC(=O)[C@H](O)c3cc(F)cc(F)c3)cc2C)cnc1N` as the compound, how does the IC50 [1] read?
Answer: 14 nM

Question: For `CNc1ncc(-c2ccc(NC(=O)[C@H](O)c3cc(F)cc(F)c3)cc2C)cc1C(=O)NC(C)C`, which IC50 [1] is on record?
Answer: 129 nM

Question: For `Cc1cc(NC(=O)[C@H](O)c2cc(F)cc(F)c2)ccc1-c1cnc(N)c(C(=O)NC(C)C)n1`, which IC50 [1] is on record?
Answer: 5 nM

Question: What does the source list for `CC(C)NC(=O)c1cc(-c2ccc(NC(=O)[C@H](O)c3cc(F)cc(F)c3)cc2Cl)cnc1N`?
Answer: half-life [2]: 24 min; Papp A→B [3]: 24 ×10⁻⁶ cm/s; half-life [4]: 12 min; IC50 [1]: 9 nM; fraction unbound [5]: 0.003; fraction unbound [6]: 0.005; fraction unbound [7]: 0.007; half-life [8]: 569 min; solubility [9]: 13 µM (≈ 6.17 µg/mL); half-life [10]: 431 min; fraction unbound [11]: 0.005; efflux ratio [12]: 2.5

Question: For `Cc1cc(NC(=O)Cc2ccccc2)ccc1-c1cnc(N)c(C(=O)NC(C)C)c1`, which IC50 [1] is on record?
Answer: 73 nM

Question: For `Cc1cc(NC(=O)[C@](C)(O)c2ccccc2)ccc1-c1cnc(N)c(C(=O)NC(C)C)c1`, which IC50 [1] is on record?
Answer: 130 nM

Question: Which IC50 [1] does the source give for `Cc1cc(NC(=O)[C@H](O)c2cc(F)cc(F)c2)ccc1-c1cnc(N)c(C(=O)OC(C)C)c1` here?
Answer: 19 nM

Question: With `CC(C)NC(=O)c1cc(-c2ccc(NC(=O)[C@H](O)c3cc(F)cc(F)c3)cc2F)cnc1N` as the compound, how does the IC50 [1] read?
Answer: 17 nM

Question: Which IC50 [1] does the source give for `Cc1cc(NC(=O)[C@@](C)(O)c2ccccc2)ccc1-c1cnc(N)c(C(=O)NC(C)C)c1` here?
Answer: 159 nM

Question: For `Cc1cc(NC(=O)[C@H](O)c2cc(F)cc(F)c2)ccc1-c1cnc(C)c(C(=O)NC(C)C)c1`, which IC50 [1] is on record?
Answer: 68 nM

Question: With `Cc1cc(NC(=O)[C@H](O)c2cc(F)cc(F)c2)ccc1-c1ccc(N)nc1` as the compound, how does the IC50 [1] read?
Answer: 75 nM
